The results in this text go back to patent US11938139B2, “Pharmaceutical compositions and methods for anxiety, depression and other psychiatric disorders” (LA PharmaTech Inc., priority 2019, dated 2024).

What all share (assay type): in vivo, human
In assay [1] the test system is patient with generalized anxiety disorder, panic disorder, and agitation. In words: Clinical case, Example 1: patient. As to conditions: person; fluoxetine alone 4 months, sertraline alone 6 months, alprazolam 2.0 mg/daily alone 4 months. The text has this:
A patient had generalized anxiety disorder, panic disorder, and agitation. […] Because azelastine is approved for the treatment of allergic rhinitis and asthma and has never been used to treat patients with depression or anxiety, this dramatic clinical outcome from this composition is unexpected. […] This way of activating the GABA system may interact more effectively with other neurotransmitter systems, including noradrenergic, serotonergic, cholinergic, and opioidergic systems. […] This composition of two mechanisms of action for two different classes of diseases provided a new solution for treating psychiatric diseases which are incurable by other options, such traditional SSRIs, NSRIs, benzodiazepines, and the like alone.

Assay [2] concerns patient with major depressive disorder and agitation. The experiment in a line: Clinical case, Example 3: patient. The conditions noted are these: person; disorder for about 2 years; fluoxetine alone, alprazolam 2.0 mg/daily alone. The text has this:
The inventors believe the hypothesis as explained in example 1 above is applicable here as well. In this case, the composition of two mechanisms of action for two different classes of diseases provided a new solution for treating […] major depressive disorder and agitation which could not be treated with other options, such traditional SSRIs, NSRIs, benzodiazepines, and the like alone.

For assay [3], the system named is patient with generalized anxiety disorder, agitation and insomnia. In words: Clinical case, Example 2: patient. As to conditions: person; disorder for 8 months; alprazolam 2.0 mg/daily alone. The text has this:
The inventors believe the hypothesis as explained in example 1 above is applicable here as well. In this case, the composition of two mechanisms of action for two different classes of diseases provided a new solution for treating […] generalized anxiety diseases and agitation along with insomnia which could not be treated with other options, such traditional SSRIs, NSRIs, benzodiazepines, and the like alone.

On to `CN[C@H]1CC[C@@H](c2ccc(Cl)c(Cl)c2)c2ccccc21` [sertraline], for which the “clinical improvement with single-agent treatment” value (shortened to “clinical improvement”) in assay [1] is “no significant clinical improvement”.
Turning to `CNCCC(Oc1ccc(C(F)(F)F)cc1)c1ccccc1` (stereo not drawn) [fluoxetine], the “clinical improvement” value in assay [1] was “no significant clinical improvement”. In addition, the “effectiveness of earlier treatment alone” value in assay [2] is on record as “no treatment, including fluoxetine alone from SSRIs or alprazolam (2.0 mg/daily) alone from benzodiazepines, had been effective”.
`Cc1nnc2n1-c1ccc(Cl)cc1C(c1ccccc1)=NC2` [alprazolam, 8-Chloro-1-methyl-6-phenyl-4H-s-triazolo(4,3-a)(1,4)benzodiazepine]: the “effectiveness of earlier treatment alone” value in assay [3] was “no treatment had been effective”; in assay [2], “no treatment, including fluoxetine alone from SSRIs or alprazolam (2.0 mg/daily) alone from benzodiazepines, had been effective”. In addition, the “clinical improvement” value in assay [1] was “no significant clinical improvement”.
